In US11236087B2, “Highly active pyrazolo-piperidine substituted indole-2-carboxamides active against the hepatitis B virus (HBV)” (AiCuris GmbH & Co. KG, priority 2017, dated 2022) one finds IC50, CC50 and EC50 data, which are given here for 23 compounds.

The target in one series is T1, HBV core protein (UniProt P03146).
T1 construct: fused on or other part: BODIPY-FL maleimide label on the C-terminal Cys150
Kind of series: Biochemical capsid assembly assay (fluorescence quenching). The note with it: read-out: Assembly Activity (IC50); BODIPY-FL labelled core protein, 300 μM NaCl, read 6 min after start. Further details: species or system hepatitis B virus. Summed up:
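Purified E. coli-expressed HBV core protein (aa 1-149 plus Cys150), BODIPY-FL maleimide-labelled, at 1.0-2.0 μM in 50 mM HEPES pH 7.5 with 0.5% DMSO was used. Compounds were tested at 8 concentrations (0.5-log dilutions from 100, 31.6 or 10 μM). Assembly was started with NaCl ([…]), and fluorescence quenching was read after 6 min (ex 477/em 525 nm). EC50 was determined by non-linear regression.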

The nature of series [1]: Cell viability assay (AlamarBlue) in HepAD38 cells. The note with it: human.
The next series has as its system HBV. Kind of series: Determination of HBV DNA from the supernatants of HepAD38 cells (anti-HBV activity). The format is cell-based, hepatitis B virus. Conditions: Hepatitis B virus, read-out: Cell Activity (EC50). Summed up: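 HepAD38 cells, tetracycline withdrawn to induce HBV, treated with serial half-log compound dilutions; on day 6 HBV DNA purified from filtered supernatant and quantified by real-time PCR against HBV plasmid standards; EC50 from relative copy numbers by non-linear regression, three experiments in triplicate.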

The mark [2] stands for this setting: 144 h, HBV DNA in HepAD38 supernatant, day 6, qPCR.

Structures are written as SMILES. Like-named read-outs stand apart in the source and are kept apart here.

T1 sequence (P03146 whole entry, looked up, the tested form may be a part): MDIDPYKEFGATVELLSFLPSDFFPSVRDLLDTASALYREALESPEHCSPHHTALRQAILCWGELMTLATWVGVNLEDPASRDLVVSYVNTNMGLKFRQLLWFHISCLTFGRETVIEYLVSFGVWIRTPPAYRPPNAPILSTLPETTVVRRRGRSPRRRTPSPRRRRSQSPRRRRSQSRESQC

In general, IC50 refers to the point on the concentration scale where inhibition reaches its midpoint. What is called CC50 is the concentration giving 50% cytotoxicity. A higher CC50 goes with lower toxicity to the cells. Broadly, the EC50 is the midpoint of the concentration-response curve. For `O=C(c1cc2ccccc2[nH]1)N1CCc2[nH]nc(C(=O)N3CCCCC3)c2C1` [Example 112, 2-[3-(piperidine-1-carbonyl)-1H,4H,5H,6H,7H-pyrazolo[4,3-c]pyridine-5-carbonyl]-1H-indole], the half-maximal inhibitory concentration (IC50) at HBV core protein was < 5 µM. In series [1], the CC50 at 6 days is > 32 µM. For the same compound, the EC50 in the series on HBV (setting [2]) is < 1 µM.

In the case of `O=C(c1cc2c(F)cc(F)cc2[nH]1)N1CCc2n[nH]c(-c3cscn3)c2C1` [Example 20, 4,6-difluoro-2-[3-(1,3-thiazol-4-yl)-2H,4H,5H,6H,7H-pyrazolo[4,3-c]pyridine-5-carbonyl]-1H-indole], the IC50 on HBV core protein was < 5 µM. In addition, the CC50 at 6 days in series [1] is > 10 µM. In addition, the EC50 in the series on HBV (setting [2]) is < 1 µM.

For `CN(CCC#N)C(=O)c1n[nH]c2c1CN(C(=O)c1cc3ccccc3[nH]1)CC2` [Example 292, N-(2-cyanoethyl)-5-(1H-indole-2-carbonyl)-N-methyl-1H,4H,5H,6H,7H-pyrazolo[4,3-c]pyridine-3-carboxamide], on HBV core protein, the IC50 was < 5 µM. Besides, the CC50 at 6 days in series [1] was > 10 µM. Further, the EC50 in the series with HBV (setting [2]) lay within 1 to 25 µM.

Take `O=C(c1cc2ccccc2[nH]1)N1CCc2[nH]nc(C(=O)N3CC[C@@H](O)C3)c2C1` [Example 156, (3R)-1-[5-(1H-indole-2-carbonyl)-1H,4H,5H,6H,7H-pyrazolo[4,3-c]pyridine-3-carbonyl]pyrrolidin-3-ol]: the IC50 at HBV core protein is < 100 µM. In series [1], the CC50 at 6 days is > 10 µM. In addition, in the series with HBV (setting [2]), the EC50 was 1 to 25 µM.

For the compound `CC(C)OC(=O)[C@H](C)NP(=O)(OCCON(C)C(=O)c1n[nH]c2c1CN(C(=O)c1cc3ccccc3[nH]1)CC2)Oc1ccccc1` (stereo partly drawn) [Example 64, propan-2-yl (2S)-2-({[2-({1-[5-(1H-indole-2-carbonyl)-1H,4H,5H,6H,7H-pyrazolo[4,3-c]pyridin-3-yl]-N-methylformamido}oxy)ethoxy](phenoxy)phosphoryl}amino)propanoate], on HBV core protein, the IC50 was < 5 µM. In addition, in series [1], the CC50 at 6 days was > 32 µM. Moreover, the EC50 in the series with HBV (HePAD38, 144 h) was < 1 µM.

For `CC(O)c1cc(F)cc2[nH]c(C(=O)N3CCc4[nH]nc(C(=O)N(C)CCO)c4C3)cc12` (stereo not drawn) [Example 49, 5-[6-fluoro-4-(1-hydroxyethyl)-1H-indole-2-carbonyl]-N-(2-hydroxyethyl)-N-methyl-1H,4H,5H,6H,7H-pyrazolo[4,3-c]pyridine-3-carboxamide], the IC50 at HBV core protein is < 100 µM. In addition, the CC50 at 6 days in series [1] is > 100 µM. Moreover, the EC50 in the series with HBV (setting [2]) is < 100 µM.

Regarding `CN(C(=O)c1n[nH]c2c1CN(C(=O)c1cc3ccccc3[nH]1)CC2)[C@H]1CC[C@H](O)CC1` [Example 173, 5-(1H-indole-2-carbonyl)-N-methyl-N-[(1r,4r)-4-hydroxycyclohexyl]-1H,4H,5H,6H,7H-pyrazolo[4,3-c]pyridine-3-carboxamide], the half-maximal inhibitory concentration (IC50) on HBV core protein was < 100 µM. In addition, the CC50 at 6 days in series [1] is > 10 µM. In the series with HBV (setting [2]), the EC50 was 1 to 25 µM.

In the case of `CCc1cccc2[nH]c(C(=O)N3CCc4[nH]nc(C(=O)N(C)CCO)c4C3)cc12` [Example 62, 5-(4-ethyl-1H-indole-2-carbonyl)-N-(2-hydroxyethyl)-N-methyl-1H,4H,5H,6H,7H-pyrazolo[4,3-c]pyridine-3-carboxamide], the IC50 on HBV core protein was < 5 µM. Moreover, the CC50 at 6 days in series [1] was > 100 µM. For the same compound, the EC50 in the series on HBV (setting [2]) was < 1 µM.

As to `COCC1(N(C)C(=O)c2n[nH]c3c2CN(C(=O)c2cc4c(Cl)cc(F)cc4[nH]2)CC3)CC1` [Example 264, 5-(4-chloro-6-fluoro-1H-indole-2-carbonyl)-N-[1-(methoxymethyl)cyclopropyl]-N-methyl-1H,4H,5H,6H,7H-pyrazolo[4,3-c]pyridine-3-carboxamide], at HBV core protein, the IC50 is < 5 µM. Moreover, the cytotoxic concentration (CC50) at 6 days in series [1] is > 10 µM. Besides, the EC50 in the series with HBV (setting [2]) is < 1 µM.

`O=C(c1cc2ccccc2[nH]1)N1CCc2[nH]nc(NCC3CC3)c2C1` [Example 79, N-(cyclopropylmethyl)-5-(1H-indole-2-carbonyl)-1H,4H,5H,6H,7H-pyrazolo[4,3-c]pyridin-3-amine]: the IC50 on HBV core protein fell in the range of 5 to 10 µM. In series [1], the CC50 at 6 days is > 100 µM. For the same compound, the half-maximal effective concentration (EC50) in the series with HBV (setting [2]) is 1 to 25 µM.

Regarding `O=C(c1cc2ccccc2[nH]1)N1CCc2[nH]nc(OC3CCCC3)c2C1` [Example 203, 2-[3-(cyclopentyloxy)-1H,4H,5H,6H,7H-pyrazolo[4,3-c]pyridine-5-carbonyl]-1H-indole], on HBV core protein, the IC50 fell in the range of 5 to 10 µM. For the same compound, the CC50 at 6 days in series [1] was > 10 µM. For the same compound, in the series with HBV (setting [2]), the half-maximal effective concentration (EC50) was < 1 µM.

With `O=C(c1cc2c(Cl)cc(F)cc2[nH]1)N1CCc2[nH]nc(C3CCCO3)c2C1` (stereo not drawn) [Example 341, 4-chloro-6-fluoro-2-[3-(oxolan-2-yl)-1H,4H,5H,6H,7H-pyrazolo[4,3-c]pyridine-5-carbonyl]-1H-indole], the IC50 on HBV core protein is < 5 µM. For the same compound, the CC50 at 6 days in series [1] was > 10 µM. Moreover, the EC50 in the series with HBV (setting [2]) was < 1 µM.

Regarding `CC1Cc2[nH]nc(-c3cscn3)c2CN1C(=O)c1cc2ccccc2[nH]1` (stereo not drawn) [Example 38, 2-[6-methyl-3-(1,3-thiazol-4-yl)-1H,4H,5H,6H,7H-pyrazolo[4,3-c]pyridine-5-carbonyl]-1H-indole], the IC50 on HBV core protein was < 5 µM. The midpoint of cytotoxicity in series [1], the CC50 at 6 days, lay at 100 µM. Moreover, the EC50 in the series on HBV (setting [2]) was < 1 µM.

On to `CCOCC1(N(C)C(=O)c2[nH]nc3c2CN(C(=O)c2cc4c(Cl)cc(F)cc4[nH]2)CC3)CC1` [Example 365, 5-(4-chloro-6-fluoro-1H-indole-2-carbonyl)-N-[1-(ethoxymethyl)cyclopropyl]-N-methyl-2H,4H,5H,6H,7H-pyrazolo[4,3-c]pyridine-3-carboxamide], for which the IC50 at HBV core protein is < 5 µM. The CC50 at 6 days in series [1] is > 10 µM. The EC50 in the series on HBV (setting [2]) is < 1 µM.

Regarding `Cc1cc(F)cc2[nH]c(C(=O)N3CCc4[nH]nc(C(=O)N(C)CCO)c4C3)cc12` [Example 61, 5-(6-fluoro-4-methyl-1H-indole-2-carbonyl)-N-(2-hydroxyethyl)-N-methyl-1H,4H,5H,6H,7H-pyrazolo[4,3-c]pyridine-3-carboxamide], the IC50 on HBV core protein was < 5 µM. The CC50 at 6 days in series [1] is > 100 µM. In addition, in the series on HBV (setting [2]), the EC50 is < 1 µM.

Consider `CCc1cc(F)cc2[nH]c(C(=O)N3CCc4[nH]nc(C5CCCO5)c4C3)cc12` (stereo not drawn) [Example 340, 4-ethyl-6-fluoro-2-[3-(oxolan-2-yl)-1H,4H,5H,6H,7H-pyrazolo[4,3-c]pyridine-5-carbonyl]-1H-indole], for which, on HBV core protein, the IC50 is < 5 µM. Moreover, the CC50 at 6 days in series [1] was > 10 µM. Besides, the EC50 with HBV (setting [2]) is < 1 µM.

`COCC1(NC(=O)c2n[nH]c3c2CN(C(=O)c2cc4ccccc4[nH]2)CC3)CC1` [Example 202, 5-(1H-indole-2-carbonyl)-N-[1-(methoxymethyl)cyclopropyl]-1H,4H,5H,6H,7H-pyrazolo[4,3-c]pyridine-3-carboxamide]: at HBV core protein, the concentration for half-maximal inhibition (IC50) is < 5 µM. In addition, the CC50 at 6 days in series [1] was > 10 µM. In addition, the EC50 with HBV (setting [2]) was < 1 µM.

As to `CC(C)OC(=O)[C@H](C)NP(=O)(OCCON(C)C(=O)c1n[nH]c2c1CN(C(=O)c1cc3c(Cl)cccc3[nH]1)CC2)Oc1ccccc1` (stereo partly drawn) [Example 56, propan-2-yl (2S)-2-({[2-({1-[5-(4-chloro-1H-indole-2-carbonyl)-1H,4H,5H,6H,7H-pyrazolo[4,3-c]pyridin-3-yl]-N-methylformamido}oxy)ethoxy](phenoxy)phosphoryl}amino)propanoate], at HBV core protein, the 50% inhibitory concentration (IC50) is < 5 µM. The 50% cytotoxic concentration (CC50) at 6 days in series [1] is > 32 µM. Besides, the EC50 in the series with HBV (HePAD38, 144 h) is < 1 µM.

In the case of `O=C(c1cc2ccccc2[nH]1)N1CCc2[nH]nc(C(=O)N3C[C@H]4CCO[C@H]4C3)c2C1` [Example 152, 2-{3-[(3aR,6aR)-hexahydro-2H-furo[2,3-c]pyrrole-5-carbonyl]-1H,4H,5H,6H,7H-pyrazolo[4,3-c]pyridine-5-carbonyl}-1H-indole], the IC50 on HBV core protein was < 100 µM. The CC50 at 6 days in series [1] was > 10 µM. In addition, in the series on HBV (setting [2]), the EC50 is 1 to 25 µM.

Consider `O=C(c1cc2ccccc2[nH]1)N1CCc2[nH]nc(C(=O)N3CCCC34CC4)c2C1` [Example 184, 2-(3-{4-azaspiro[2.4]heptane-4-carbonyl}-1H,4H,5H,6H,7H-pyrazolo[4,3-c]pyridine-5-carbonyl)-1H-indole], for which, at HBV core protein, the IC50 is < 5 µM. In addition, in series [1], the CC50 at 6 days was > 10 µM. Further, the EC50 in the series on HBV (setting [2]) was < 1 µM.

As for `CCc1cccc2[nH]c(C(=O)N3CCc4[nH]nc(C5CCCO5)c4C3)cc12` (stereo not drawn) [Example 337, 4-ethyl-2-[3-(oxolan-2-yl)-1H,4H,5H,6H,7H-pyrazolo[4,3-c]pyridine-5-carbonyl]-1H-indole], the IC50 on HBV core protein is < 5 µM. In addition, the CC50 at 6 days in series [1] is > 10 µM. Also, the EC50 with HBV (setting [2]) is < 1 µM.

In the case of `O=C(c1cc2c(F)cccc2[nH]1)N1CCc2[nH]ncc2C1` [Example 114, 4-fluoro-2-{1H,4H,5H,6H,7H-pyrazolo[4,3-c]pyridine-5-carbonyl}-1H-indole], the IC50 on HBV core protein is < 5 µM. Further, the CC50 at 6 days in series [1] was > 100 µM. For the same compound, the half-maximal effective concentration (EC50) in the series with HBV (setting [2]) is < 1 µM.

For the compound `COCC1(N(C)C(=O)c2n[nH]c3c2CN(C(=O)c2cc4ccccc4[nH]2)CC3)CCC1` [Example 154, 5-(1H-indole-2-carbonyl)-N-[1-(methoxymethyl)cyclobutyl]-N-methyl-1H,4H,5H,6H,7H-pyrazolo[4,3-c]pyridine-3-carboxamide], on HBV core protein, the IC50 was 5 to 10 µM. In addition, in series [1], the CC50 at 6 days is > 10 µM. For the same compound, in the series with HBV (setting [2]), the EC50 was < 1 µM.
